{"source": "patent US12723233B2", "about": "“Media and methods for differentiating natural killer cells” (STEMCELL Technologies Canada Inc., priority 2018, dated 2026)", "assay_type_in_all_cases": "cell-based, Human", "key": {"NK cell progenitors": {"test_system": "NK cell progenitors", "assay": "Differentiation of cord blood CD34+-derived NK cell progenitors to CD56+ NK cells (culture days 14-28), flow cytometry and cell counts", "description": "Human CB samples were obtained from Bloodworks NW (Seattle, WA) and CD34^+ cells were isolated using EasySep™ Human Cord Blood CD34 Positive Selection Kit II (STEMCELL Technologies, Catalogue #17896). Obtained in this way the purity of CD34^+ cells is typically higher than 90%.\nThe wells of a 24-well plate were coated with StemSpan™ Lymphoid Differentiation Coating Supplement (STEMCELL Technologies, Catalogue #09925) and 5000 CD34^+ cells were plated per well. The CD34^+ cells were cultured for up to 14 days in StemSpan™ SFEM II (STEMCELL Technologies, Catalogue #09605, 09655) supplemented with Lymphoid Progenitor Expansion Supplement (STEMCELL Technologies, Catalogue #09915) with media changes every 3-4 days.\nAfter 14 days in culture, CD34^+ cell-derived NK cell progenitors were harvested. 50,000 NK cell progenitors were plated per well of an uncoated tissue culture 24-well plate. The plated NK cell progenitors were cultured for up to two weeks in NK Cell Differentiation medium (i.e StemSpan™ SFEM II (STEMCELL Technologies, Catalog # 09605, 09655) supplemented with NK Cell Differentiation Supplement (STEMCELL Technologies, Catalogue #09950), and cultured for an additional two weeks with media changes every 3-4 days. UM729 or UM171 was added to supplemented NK Cell Differentiation Medium on days 14-28. On day 28 cells were harvested for analysis or downstream applications.\nHarvested cells were stained and measured by flow cytometry for expression of the NK cell lineage marker CD56. Dead cells were excluded by light scatter profile and 7-AAD or DRAQ7 staining. The results in FIGS. 1 and 2 at condition “0” (plotted on the x-axis) indicate the frequency and yield of CD56^+ NK cells that result from experiments that follows the protocol described above but in the absence of UM171 or UM729. Cell counts were obtained using the NucleoCounter NC250. Yield was calculated by dividing the resulting cell number by the number of cells initially seeded. Yields of specific cell types were obtained by multiplying total yield by cell frequency.\nCells were cultured as described in Example 1, with the exception that the up to two week culture of NK cell progenitors (i.e. culture days 14-28) in NK Cell Differentiation medium occurred in the presence or absence of UM171 or UM729.\nThe effects of UM171 and UM729 were tested across a range of concentrations: 0 nM, 50 nM, 100 nM, 150 nM and 200 nM for UM171; and 0 μM, 0.25 μM, 0.5 μM, 1 μM, and 2 μM for UM729.\nCD34^+ CB cells were isolated and cultured as described in Example 1 up to the day 14 time point. Day 14 NK cell progenitors were further cultured in NK Cell Differentiation medium, essentially as described in Example 1, except in the absence of an added pyrimidoindole compound but in the presence or absence of 5 μM CH223191."}, "[1]": {"test_system": "differentiated CD56+ NK cells", "assay": "Flow cytometry of NK cell, maturity and T cell markers on differentiated CD56+ NK cells at day 28", "description": "CD56^+ NK cells were differentiated as described in Examples 1 and 2 in the presence of 1 μM UM729 and analyzed on day 28 by flow cytometry for the expression of known NK cell markers. Cells were stained with fluorescence-conjugated antibodies against indicated NK cell markers for 15 min at 4° C. Non-specific binding was blocked using FcR blocker and 5% human or rat serum. Dead cells were excluded by light scatter profile and 7-AAD or DRAQ7 staining. Prepared samples were analyzed by flow cytometry.\nCD56^+ NK cells were differentiated as described in Examples 1 and 2 in the presence of 1 μM UM729 and analyzed on day 28 by flow cytometry for the expression of known NK cell markers. The cells were stained for the markers described in this Example essentially as described in Example 3. Staining for KIR molecules was performed using a combination of two clones for the antibody, 180704 and HP-MA4, as each recognizes a distinct subset of KIR molecules. Dead cells were excluded by light scatter profile and 7-AAD or DRAQ7 staining.\nProduction of IFNγ by the differentiated CD56^+ NK cells was also measured. For IFNγ intracellular staining, differentiated CD56^+ NK Cells were stimulated with PMA/Ionomycin for 2 hours. Brefeldin A was added and the cells were incubated for another 2 hours. The cells were harvested and stained for CD56 and Zombie NIR viability dye then fixed, permeabilized and stained for intracellular IFNγ.\nCD56^+ NK cells were differentiated as described in Examples 1 and 2 in the presence of pyrimidoindole compounds and analyzed on day 28 by flow cytometry for the expression of a T cell marker. The analyzed cells were stained for CD3 essentially as described in Example 3. Dead cells were excluded by light scatter profile and 7-AAD or DRAQ7 staining."}, "PSC-derived CD34+ cells": {"test_system": "PSC-derived CD34+ cells", "assay": "Differentiation of PSC-derived CD34+ cells into CD5+CD7+ NK cell progenitors", "conditions": "1 μM UM729 during days 10 to 24; PSC lines 1C, M001, H1, F016", "description": "PSC-derived […] cells were generated as described in Example 11. The PSC-derived […] cells were cultured as described in Example 11, except the effect of the presence or absence of 1 μM UM729 on the differentiation of a population of NK cell progenitors was assessed. The cells were stained for CD5 and CD7 essentially as described in Example 3 and analyzed for frequency of CD5^+CD7^+ cells and yield of CD5^+CD7^+ cells per 5×10^4 input PSC-derived […] cells. Both the frequency (FIG. 15A) and yield (FIG. 15B) of CD5^+CD7^+ cells decreased after culturing the PSC-derived […] cells in the presence of UM729, as compared to culturing such cells in the absence of UM729. Therefore, the presence of UM729 during days 10 to 24 of culturing PSC-derived […] cells decreases the frequency and yield of CD5^+CD7^+ NK progenitor cells."}, "[2]": {"conditions": "1 μM UM729, normalized to STD cultures, n=20"}, "[3]": {"conditions": "tested 0, 0.25, 0.5, 1, 2 μM, days 14-28"}, "[4]": {"conditions": "cells differentiated in the presence of 1 μM UM729, day 28"}}, "note": "Entries after “also recorded” stand apart in the source; their conditions may differ."}
{"smiles": "COC(=O)c1ccc2c(c1)[nH]c1ncnc(NCCCN3CCCCC3)c12", "note": "[UM729, methyl 4-((3-(piperidin-1-yl)propyl)amino)-9H-pyrimido[4,5-b]indole-7-carboxylate]", "values": [{"measurement": "Frequency of CD56+ NK cells compared to cultures lacking UM729", "setting": "NK cell progenitors; 1 μM UM729, 14 days culture of NK cell progenitors, paired t-test p=0.017", "result": "increased significantly"}, {"measurement": "Yield of CD56+ NK cells per input cell compared to cultures lacking UM729", "setting": "NK cell progenitors; 1 μM UM729, 14 days culture of NK cell progenitors, paired t-test p=0.032", "result": "increased significantly"}, {"measurement": "Increase of average frequency of NK cells compared to culture conditions not including a pyrimidoindole compound", "setting": "NK cell progenitors; [2]", "result": "~ 30%"}, {"measurement": "Increase of average yield of NK cells compared to culture conditions not including a pyrimidoindole compound", "setting": "NK cell progenitors; [2]", "result": 2, "unit": "fold"}, {"measurement": "Concentration at which frequency of CD56+ NK cells appeared to be highest", "setting": "NK cell progenitors; [3]", "result": 1, "unit": "µM"}, {"measurement": "Concentration at which yield of CD56+ NK cells appeared to be highest", "setting": "NK cell progenitors; [3]", "result": 1, "unit": "µM"}, {"measurement": "Analyzed cells co-expressing CD56 and CD16", "setting": "[1]; [4]", "result": "approximately 17%"}, {"measurement": "Analyzed cells co-expressing CD56 and CD94", "setting": "[1]; [4]", "result": "approximately 18%"}, {"measurement": "Analyzed cells co-expressing CD56 and KIR", "setting": "[1]; [4]", "result": "approximately 10%"}, {"measurement": "Analyzed cells co-expressing CD56 and NKG2D", "setting": "[1]; [4]", "result": "approximately 50%"}, {"measurement": "Analyzed cells co-expressing CD56 and NKp30", "setting": "[1]; [4]", "result": "approximately 80%"}, {"measurement": "Analyzed cells co-expressing CD56 and NKp44", "setting": "[1]; [4]", "result": "approximately 80%"}, {"measurement": "Analyzed cells co-expressing CD56 and NKp46", "setting": "[1]; [4]", "result": "approximately 70%"}, {"measurement": "Differentiated CD56+ NK cells expressing intracellular IFNγ upon stimulation", "setting": "[1]; cells differentiated in the presence of 1 μM UM729, PMA/Ionomycin 2 hours, then Brefeldin A 2 hours", "result": "approximately 58%"}, {"measurement": "Expression of CD3 among differentiated cells", "setting": "[1]; cord blood sample of a second donor, 1 μM UM729, day 28", "result": "virtually absent; also recorded: do not express CD3"}, {"measurement": "Frequency of CD5+CD7+ cells compared to absence of UM729", "setting": "PSC-derived CD34+ cells", "result": "decreased"}, {"measurement": "Yield of CD5+CD7+ cells per 5×10^4 input PSC-derived cells compared to absence of UM729", "setting": "PSC-derived CD34+ cells", "result": "decreased"}]}
